In PMC4481117 (Molecular Pain, 2015):

How the values were obtained:
[1] = system: αMI-domain (active and nonactive forms); experiment: Solid-phase binding of active and nonactive GST-αMI-domains; settings: immobilized peptide, 1.5 h at 22 °C, anti-GST detection, 405 nm; means of triplicates, representative of n = 4
Method: Fig. 2 Binding of the active and nonactive αMI-domain conformers to dynorphin. a, the 3D structure of active (PDB ID 1ido) and nonactive (PDB ID 1jlm) αMI-domains are shown as ribbon diagrams. The wells of microtiter plates were coated with different concentrations of dynorphin A (b) and the D100 fragment of fibrinogen (c). The active (●) and nonactive (○) recombinant αMI-domains containing GST fusion parts were added to the wells and incubated for 1.5 h at 22 °C. Bound αMI-domains were detected with an anti-GST mAb followed by an AP-conjugated secondary antibody. Data are the means of triplicate determinations, and error bars represent S.E. Representative experiments in b (n = 4) and c (n = 4) are shown. For multiple comparisons, individual concentrations were tested using t-test with p-value of 0.05 corrected by Bonferroni method and accepting values of 0.007 as significant (**).
Dyn A ([…]), Dyn B ([…]), and control peptide ([…]) were purchased from AnaSpec, Inc (San Jose, CA). […]
Microtiter plates were coated with different concentrations of the fibrinogen D100 fragment or Dyn A overnight at 4 °C and post-coated with 3 % BSA for 1 h. […] After washing, goat anti-mouse IgG conjugated to alkaline phosphatase was added for 1 h and the binding of the αMI-domains was detected by reaction with p-nitrophenyl phosphate measuring the absorbance at 405 nm. […]

IC-21 macrophages = experiment: Phagocytosis of Dyn A-coated latex beads by IC-21 macrophages; assay type: cell-based, murine; settings: 1 μm beads preincubated with 50 μg/ml Dyn A, 30 min at 37 °C; vs control beads
Method: Fig. 8 Effect of Dyn A on phagocytosis of latex beads. a, Fluorescent latex beads (1x10^9/ml) were preincubated with Dyn A (50 μg/ml) for 40 min at 37 °C. Soluble peptide was removed from the beads by high-speed centrifugation. Peptide-coated beads were incubated with adherent IC-21 macrophages for 30 min at 37 °C. Nonphagocytosed beads were removed from cells by washing with PBS. […] Rat IgG2b was used as an isotype control for anti-αM mAb M1/70. Phagocytosis was quantified for five random fields per well using a 20x objective. Phagocytosis of Dyn A-treated beads was assigned as 100 %.
A suspension of fluorescent […] latex beads (1x10^9/ml) (FluoSpheres sulfate microspheres, Life Technologies, Carlsbad, CA) was incubated with 50 μg/ml of Dyn A for 40 min at 37 °C, then unbound peptide was removed by centrifugation. IC-21 murine macrophages (5 × 10^5/ml) were adhered on the cover glass for 30 min and 3 × 10^6 of peptide-coated beads were added to adherent IC-21 cells. After incubating for 30 minutes at 37 °C, nonphagocytosed beads were separated from macrophages by washing with 3x1 ml PBS and phagocytosed beads were counted in the presence of trypan blue. […] The ratio of beads per macrophage was quantified by taking photographs of five fields for each well using a Leica DM4000 B microscope (Leica Microsystems, Buffalo Grove, IL) with a 20 × objective.

CC[C@H](C)[C@H](NC(=O)[C@H](CCCNC(=N)N)NC(=O)[C@H](CCCNC(=N)N)NC(=O)[C@H](CC(C)C)NC(=O)[C@H](Cc1ccccc1)NC(=O)CNC(=O)CNC(=O)[C@@H](N)Cc1ccc(O)cc1)C(=O)N[C@@H](CCCNC(=N)N)C(=O)N1CCC[C@H]1C(=O)N[C@@H](CCCCN)C(=O)N[C@@H](CC(C)C)C(=O)N[C@@H](CCCCN)C(=O)N[C@@H](Cc1c[nH]c2ccccc12)C(=O)N[C@@H](CC(=O)O)C(=O)N[C@@H](CC(N)=O)C(=O)N[C@@H](CCC(N)=O)C(=O)O [Dyn A]
Difference in binding of active and nonactive αMI-domains [1]: No significant difference in binding of active and nonactive αMI-domains | Augmentation of bead uptake (IC-21 macrophages): ~ 10 -fold
